Source: patent US20090068143A1, “ORALLY EFFECTIVE C[…]” (priority 2005, published 2009)

Legend:
visceral pain = experiment: Visceral pain, acetic acid induced writhing responses; format: in vivo, ICR mice; conditions: for inhibition of writhing responses as compared to vehicle treated group: 2 mg/kg i.v.
Protocol: For the i.v. part of the study, compounds were dissolved in CREMOPHOR®:Ethanol and diluted 1:20 in saline prior to injection, fifteen minutes before pain induction. When compounds were delivered per os, they were dissolved in phosphate buffer or in CREMOPHOR®:Ethanol as previously described and administered 1 hour before pain induction. Each treatment group, except for controls comprising at least 30 animals, was composed of at least 6 animals. Fifteen or sixty minutes later, depending on the route selected for drug administration, the mice were injected i.p. with 10 ml/kg of 0.6% acetic acid and the number of visceral pain related behaviors (writhing, stretching, contractions of the abdomen accompanied by an elongation of the body and extension of the hind limbs) is counted over a period of 5 minutes, starting 5 minutes after the acetic acid administration. These visceral pain related behaviors are globally defined as writhing responses (WR). The results are expressed as mean number of writhing responses±SEM. Data were analyzed using analysis of variance (ANOVA) followed by post-hoc Fisher test. A value of p<0.05 was considered to be statistically significant and is indicated on the figure by an asterisk over the relevant treatment group.
The following results were obtained at 2 mg/kg i.v. of test compounds or, in the case of the study performed with cannabinoid receptor antagonists, 1 mg/kg test compound or antagonist alone and 1 mg/kg test compound+1 mg/kg antagonist. In a separate study, it was shown that analgesic activity of compounds of the invention was dose related.

[1] = Stability in aqueous solutions; format: physicochemical; conditions: 95 μg/ml in citrate buffer (pH 7.1), 4° C.
Protocol: Stability of compounds of the invention in aqueous solutions was compared. Compounds were dissolved in buffer phosphate solutions and their concentration monitored using HPLC and spectrophotometer methodology. While compound 18F at concentration of 2 mg/ml in phosphate buffer (pH 7.0) was stable for at least 3 months at 4° C., compound 18B at concentration of 95 μg/ml in citrate buffer (pH 7.1) readily hydrolyzed in less than 24 hours at 4° C. Therefore, compounds that were designed following the same rational yielded unexpectedly divergent outcome, for instance in connection with stability in aqueous solutions.

[2] = Actual solubility in aqueous buffers / cosolvent (HPLC, spectrophotometer); format: physicochemical
Protocol: The actual solubility of certain compounds of the invention was assessed in aqueous buffers and final concentration of compounds was determined using HPLC and spectrophotometer methodologies. […] Therefore, compounds that were designed following the same rational yielded unexpectedly divergent outcome, for instance in connection with solubility in aqueous solutions.
It should be noted that following lyophilization compound 18F could be dissolved in 80 mM phosphate buffer at pH 6.9 even more efficiently at concentrations up to 60 mg/ml, about two order of magnitudes higher than expected.
Approximately 11 g of compound 18F were lyophilized in one lyophilization cycle. A cosolvent mixture comprising 38.6% w/v of compound 18F was divided into several dishes to fit the lyophilization chamber. As a result of lyophilization, a dry product with improved physical properties such as flowability and less stickiness was obtained.

CB1 receptor = CB1 receptor (Homo sapiens, UniProt P21554); experiment: CB1 binding assay
iNOS [3] = experiment: iNOS gene expression in LPS activated RAW 264.7 macrophages (real-time RT-PCR); format: cell-based, mouse; conditions: for inhibition of iNOS gene expression: 10 μM, 1 h pre-treatment, 3 hrs after LPS activation
Protocol: (§1) RAW 264.7 macrophages, a mouse cell line (ATCC # TIB 71), were grown in Dulbecco's modified Eagle's medium (DMEM) with 4 mM L-glutamine adjusted to contain 1.5 g/L sodium bicarbonate, 4.5 g/L glucose, and 10% heat inactivated fetal bovine serum. Cells were grown in tissue culture flasks and seeded at appropriate density into 6 wells tissue culture plates. Four million Raw cells in half a milliliter were stimulated with 1 μg/ml Lipopolysaccharide E. coli 055:B5 (DIFCO Laboratories). The mouse macrophages were pre-treated for one hour with controls or 10 μM of test compounds, and later on activated with LPS. RNA samples were extracted from the cells 3 hrs after activation and iNOS gene expression levels were analyzed by real-time RT-PCR as previously described. For western blot analysis, compounds were tested at 1, 5 and 10 μM and cells were harvested 24 hrs after LPS stimulation. Supernatant were collected and NO secretion was analyzed using ELISA. Cells were washed 3 times with cold PBS, scrapped and lyzed in 100 μl cell lysis buffer containing 20 mM HEPES, pH 7.6, 150 mM NaCl, 1.5 mM MgCl2, 0.2 mM EDTA, 1% Triton X-100, 10% glycerol, 1 mM DTT, 1 mM PMSF, 10 μg/ml aprotinin. 5 µg/ml leupeptin, 10 mM p-nitrophenyl phosphate, 100 mM β-glycerophosphate, 1 mM sodium fluoride, and 0.1 μM sodium orthovanadate. Cells were lyzed on ice for 10 minutes before further processing.
The results of this experiment are expressed as fold activation of iNOS over non-activated macrophages, after normalization to cyclophilin A expression. Compound 18A inhibits 63% of iNOS gene expression, and compounds 18B, 18E and 18F inhibit 55%, 25% and 100% respectively. […] This surprising observation strengthen the fact that compounds of the invention, though chemically related, have distinct and unexpected properties.

CB2 receptor = CB2 receptor (Homo sapiens, UniProt P34972); experiment: CB2 binding assay
MBP induced acute EAE = experiment: MBP induced acute EAE; format: in vivo, Lewis rats; conditions: 0.5-1 mg/kg i.v., 3 days after clinical onset
Protocol: In the present study, EAE was induced by injection of Myelin Basic Protein (MBP), a method known to model the acute phase of MS. In this model the onset of the disease is observed by the appearance of clinical symptoms about 10 days after induction. The disease progresses and the clinical score increases and peaks around day 15 and spontaneous recovery is observed around day 23 after induction of the disease.
Female Lewis rats (average body weight 130-180 g, Harlan, Israel) were injected s.c. into the hind paws with 25 μg of purified guinea pig myelin basic protein (MBP, Sigma) emulsified in 0.1 ml of Complete Freund's Adjuvant (Difco). Animals were maintained on a 12 hours light/12 hours dark regimen, at a constant temperature of 22° C., with food and water ad libitum. Starting from day 8 following induction, animals were followed up on a daily basis. The results are recorded as clinical score; score of 0 indicates a normal animal with no clinical signs, 0.5 indicates a loss of tonicity in the tail's distal part, 1 indicates whole tail paralysis, 1.5 indicates hind legs weakness in one leg, 2 indicates hind legs weakness in two legs, 2.5 indicates fore legs paralysis in one leg, 3 indicates paralysis of all four legs, 4 indicates complete body paralysis and moribund state and 5 indicates death. The clinical score of the animals is recorded for 15 days following onset of disease until the end of the study 25 days following induction and the area under the curve (AUC) is calculated over this period of time.
Few routes of administration were assessed and the treatments were either administered intravenously (in CE vehicle) or orally by gavage (in PB vehicle) at volume dose of 5 ml/kg.
Results are expressed as mean±SEM and the differences between the treatment groups were analyzed by analysis of variance (ANOVA) followed by Tukey's post hoc test. A value of p<0.05 was considered to be statistically significant and is indicated on the figure by an asterisk over the relevant treatment group.
Compound 18A was dissolved in CREMOPHOR EL®:ethanol and further diluted in physiological buffer prior to i.v. administration. It is now disclosed that compound 18F could be dissolved directly in 80 mM phosphate buffer (pH 6.4) and administered p.o. Compound 18F was administered by oral gavage at doses of 20, 30, 40, 50 and 60 mg/kg to animals showing clinical signs of the disease. Each treatment group comprised at least 10 animals at onset of disease. At some doses, experiments were repeated up to four times.

RAW 264.7 macrophages = experiment: NO secretion of LPS activated RAW 264.7 macrophages (ELISA); format: cell-based; conditions: Mus musculus, RAW264.7, 24 hrs after LPS stimulation
Protocol: as §1, with “processing. […]” for “processing.”

iNOS [4] = experiment: iNOS protein expression in activated macrophages (western blot); format: cell-based, mouse; conditions: 1, 5 and 10 μM, 24 hrs after LPS stimulation
Protocol: as §1, with “Cells were washed 3 times with cold PBS, scrapped and lyzed in 100 μl cell lysis buffer containing 20 mM HEPES, pH 7.6, 150 mM NaCl, 1.5 mM MgCl2, 0.2 mM EDTA, 1% Triton X-100, 10% glycerol, 1 mM DTT, 1 mM PMSF, 10 μg/ml aprotinin. 5 µg/ml leupeptin, 10 mM p-nitrophenyl phosphate, 100 mM β-glycerophosphate, 1 mM sodium fluoride, and 0.1 μM sodium orthovanadate. Cells were lyzed on ice for 10 minutes before further processing.” left out
To assess correlation between gene expression and protein expression, protein extracts were prepared from the various treated activated macrophages. […] Primary antibodies against cyclophilin A were used as control (Upstate, Cat# 07-313), and the amount of iNOS was assessed using NOS2 (C11) Santa Cruz antibodies (Cat# SC-7271) were hybridized for 2 hours at room temperature. […]

[5] = test system: Taxol® induced neuropathic pain; experiment: Taxol® induced neuropathic pain; format: in vivo, Sprague Dawley rats; conditions: gabapentin 100 mg/kg i.p., morphine 5 mg/kg i.p.; not statistically significant
Protocol: Male Sprague Dawley rats (average body weight 150-200 g, Harlan, Israel) were administered i.p. with 6 mg/kg Taxol® (Bristol Myers Squibb, USA) every other day for 9 days. On day 13, baseline pain threshold was measured. One hour later, the animals were administered with 5 ml/kg i.p. of vehicle (PB) only and pain threshold was re-established. After an additional hour animals were treated with various doses of compound 18F ranging from 0.5 mg/kg up to 10 mg/kg administered i.p. Morphine at 5 mg/kg i.p. and gabapentin at 100 mg/kg i.p served as positive controls. Each treatment group comprised at least eight animals. One hour post drug administration pain threshold was monitored using thermal and mechanical stimuli as previously described. At the end of the study, rats were euthanized with sodium pentobarbitone 100 mg/kg i.p. Sample rats were then transfused with saline and heparinized 4% formaldehyde solution. The L4-L5 area of the spinal cord and the sciatic nerve were taken for histopathology assessment.
The time latencies for thermal hyperalgesia, and force needed to induce pain of the different treatment groups are compared, using one way ANOVA (analysis of variance), followed by Duncan's post hoc test. A p<0.05 value was considered statistically significant and is indicated on the figure by an asterisk over the relevant treatment group.

EAE = conditions: 40 mg/kg p.o. daily for 21 days from disease induction, cited from earlier work
[6] = oral administration, on an average; cited from earlier work

Sequence of CB1 receptor (P21554 whole entry): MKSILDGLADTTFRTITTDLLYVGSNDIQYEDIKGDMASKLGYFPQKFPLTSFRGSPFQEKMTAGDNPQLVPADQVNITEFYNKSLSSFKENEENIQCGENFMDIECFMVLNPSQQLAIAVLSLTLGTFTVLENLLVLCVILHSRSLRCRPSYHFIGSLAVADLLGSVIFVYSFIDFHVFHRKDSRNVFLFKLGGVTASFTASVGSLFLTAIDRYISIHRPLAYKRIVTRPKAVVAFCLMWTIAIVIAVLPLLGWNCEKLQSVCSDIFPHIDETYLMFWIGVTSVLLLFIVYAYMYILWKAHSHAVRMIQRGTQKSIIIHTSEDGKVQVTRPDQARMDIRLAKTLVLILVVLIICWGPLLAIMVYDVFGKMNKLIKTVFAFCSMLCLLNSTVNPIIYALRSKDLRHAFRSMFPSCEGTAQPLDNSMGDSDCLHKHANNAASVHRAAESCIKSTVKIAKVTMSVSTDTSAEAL
Sequence of CB2 receptor (P34972 whole entry): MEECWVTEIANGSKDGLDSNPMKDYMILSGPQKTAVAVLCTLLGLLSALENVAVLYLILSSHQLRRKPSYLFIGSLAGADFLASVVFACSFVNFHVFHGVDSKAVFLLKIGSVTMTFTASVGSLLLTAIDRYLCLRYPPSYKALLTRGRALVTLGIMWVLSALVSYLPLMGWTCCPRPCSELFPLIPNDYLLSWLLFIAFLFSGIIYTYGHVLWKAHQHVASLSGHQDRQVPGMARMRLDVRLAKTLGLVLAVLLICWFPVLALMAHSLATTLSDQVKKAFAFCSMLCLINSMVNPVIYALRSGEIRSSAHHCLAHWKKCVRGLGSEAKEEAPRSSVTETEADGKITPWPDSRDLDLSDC

CCCCCCC(C)(C)c1cc(O)c([C@H]2CC(=O)C3CC2C3(C)C)c(OC(=O)CCC(=O)O)c1 (single isomer, unassigned; (-)) [Compound 18B, (−)-4-{4-[1,1-dimethylheptyl]-2-succinate-6-hydroxy-phenyl}-6,6-dimethyl-bicyclo[3.1.1]heptan-2-one]
inhibition of writhing responses as compared to vehicle treated group (visceral pain): 95%
inhibition of pain response as compared to untreated animals (visceral pain; 10 mg/kg p.o. in phosphate buffer): 88%
time to hydrolysis in solution [1]: less than 24 hours
divergence of solubility from prediction ([2]; aqueous citrate buffer (pH 7.1) vs calculated): < 4 fold
solubility ([2]; aqueous citrate buffer, pH 7.1, aqueous buffer, thermodynamic from solid, aqueous citrate buffer (pH 7.1), read-out: actual solubility): ≤ 95 µg/mL
IC50 (CB1 receptor): 41 nM
inhibition of iNOS gene expression (iNOS [3]): 55%
IC50 (CB2 receptor): 1.2 nM

CCCCCCC(C)(C)c1cc(O)c([C@H]2CC(=O)[C@H]3C[C@@H]2C3(C)C)c(O)c1 [Compound 18A, (−)-4-[4-(1,1-Dimethylheptyl)-2,6-dihydroxy-phenyl]-6,6-dimethyl-bicyclo[3.1.1]heptan-2-one]
inhibition of the number of writhing responses (visceral pain; 1 mg/kg i.v.): 90%
effect of addition of CB1 antagonist on analgesic activity (visceral pain; 1 mg/kg i.v. + 1 mg/kg SR141716A): totally blocked
effect of addition of CB2 antagonist on analgesic activity (visceral pain; 1 mg/kg i.v. + 1 mg/kg SR144528): did not affect
inhibition of writhing responses as compared to vehicle treated group (visceral pain): total inhibition
inhibition of writhing responses (visceral pain; 10 mg/kg p.o. in CREMOPHOR®:Ethanol): 70%
reduction in AUC of clinical score (MBP induced acute EAE): 30-35%
inhibition at 10 µM (RAW 264.7 macrophages): 63%
IC50 (CB1 receptor): 27.6 nM
iNOS protein band (western blot) (iNOS [4]): clear dose dependent disappearance of iNOS protein band
effect of CB1 or CB2 antagonists on iNOS inhibiting activity (iNOS [3]; 5 μM of SR-141716 and SR-144528): reversed by co-administration of either CB1 or CB2 antagonists
inhibition of iNOS gene expression (iNOS [3]): 63%
IC50 (CB2 receptor): 1 nM

NCC1(CC(=O)O)CCCCC1 [Gabapentin, reference compound]
activity in visceral pain model (visceral pain; fumaric acid up to 5 mg/kg, Gabapentin up to 200 mg/kg, celecoxib up to 10 mg/kg): inactive
effect on pain threshold [5]: trend of increasing the pain threshold

CCCCCc1cc(O)c2c(c1)OC(C)(C)[C@@H]1CC=C(C)C[C@@H]21 [Δ^8-THC, reference compound]
decrease of number of writhing responses as compared to the untreated group (visceral pain; 10 mg/kg p.o. in CREMOPHOR®:Ethanol, not statistically significant vs vehicle): 47%
decrease of mean disease severity (EAE): 20%
mean disease severity (EAE; vehicle 5.5±0.8): 4.4±0.8
solubility in aqueous buffer ([2]; in words): not soluble in aqueous buffer

CCCCCc1cc(O)c2c(c1)OC(C)(C)[C@@H]1CCC(C)=C[C@@H]21 [Δ^9-THC, Δ^9-tetrahydrocannabinol]
absolute bioavailability [6]: 13%
